Data from paper doi:10.1101/2023.09.25.559398v1 (biorxiv, 2023).

How the values were obtained:
[1] = molecular target: T1, D2longR (Homo sapiens, UniProt P14416); assay: radioligand competition binding, cell homogenates
[2] = molecular target: T2, D4R (D4.4R) (Homo sapiens, UniProt P21917); assay: radioligand competition binding, cell homogenates
T2 sequence (P21917 1-419): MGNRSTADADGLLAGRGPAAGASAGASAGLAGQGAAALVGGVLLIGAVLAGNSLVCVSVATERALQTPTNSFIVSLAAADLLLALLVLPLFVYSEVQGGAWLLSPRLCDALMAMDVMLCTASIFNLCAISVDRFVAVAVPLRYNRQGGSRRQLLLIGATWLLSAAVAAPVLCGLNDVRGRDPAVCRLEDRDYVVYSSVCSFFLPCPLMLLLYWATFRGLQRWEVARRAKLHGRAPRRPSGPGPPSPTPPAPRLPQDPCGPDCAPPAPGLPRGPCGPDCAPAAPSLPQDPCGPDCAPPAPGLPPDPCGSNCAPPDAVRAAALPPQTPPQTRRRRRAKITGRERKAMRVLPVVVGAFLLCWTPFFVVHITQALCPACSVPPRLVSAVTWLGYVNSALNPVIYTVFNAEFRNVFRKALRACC

[3] = molecular target: D3R (Homo sapiens, UniProt P35462); assay: radioligand competition binding, cell homogenates
[4] = molecular target: D1R (Homo sapiens, UniProt P21728); assay: radioligand competition binding, cell homogenates
[5] = molecular target: D5R (Homo sapiens, UniProt P21918); assay: radioligand competition binding, cell homogenates
[6] = molecular target: T1, D2longR; assay: Go1-CASE BRET heterotrimer dissociation assay, antagonist mode; format: cell-based
[7] = molecular target: T3, D4R (Homo sapiens, UniProt P21917); assay: as above; format: cell-based
T3 sequence (P21917 1-419): T2 sequence (P21917 1-419)

[8] = molecular target: D2longR-mNeonGreen (hD2R-mNeonGreen) (Homo sapiens, UniProt P14416); assay: molecular brightness, confocal microscopy of intact cells; format: cell-based
Chain of D2longR-mNeonGreen (hD2R-mNeonGreen) (P14416 whole entry): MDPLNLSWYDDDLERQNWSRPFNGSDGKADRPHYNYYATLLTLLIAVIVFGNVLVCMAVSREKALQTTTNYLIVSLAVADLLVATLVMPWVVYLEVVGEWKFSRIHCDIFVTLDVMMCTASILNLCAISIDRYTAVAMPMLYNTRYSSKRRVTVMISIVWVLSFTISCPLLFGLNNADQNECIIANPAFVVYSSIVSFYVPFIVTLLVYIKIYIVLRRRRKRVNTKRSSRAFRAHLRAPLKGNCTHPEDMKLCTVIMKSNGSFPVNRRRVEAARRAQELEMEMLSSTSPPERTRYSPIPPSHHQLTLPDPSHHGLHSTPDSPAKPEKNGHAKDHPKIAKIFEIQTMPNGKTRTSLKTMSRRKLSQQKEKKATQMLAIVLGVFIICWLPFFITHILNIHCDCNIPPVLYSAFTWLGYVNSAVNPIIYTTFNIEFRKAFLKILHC

T1 sequence (P14416 whole entry): as above
Chain of D1R (P21728 whole entry): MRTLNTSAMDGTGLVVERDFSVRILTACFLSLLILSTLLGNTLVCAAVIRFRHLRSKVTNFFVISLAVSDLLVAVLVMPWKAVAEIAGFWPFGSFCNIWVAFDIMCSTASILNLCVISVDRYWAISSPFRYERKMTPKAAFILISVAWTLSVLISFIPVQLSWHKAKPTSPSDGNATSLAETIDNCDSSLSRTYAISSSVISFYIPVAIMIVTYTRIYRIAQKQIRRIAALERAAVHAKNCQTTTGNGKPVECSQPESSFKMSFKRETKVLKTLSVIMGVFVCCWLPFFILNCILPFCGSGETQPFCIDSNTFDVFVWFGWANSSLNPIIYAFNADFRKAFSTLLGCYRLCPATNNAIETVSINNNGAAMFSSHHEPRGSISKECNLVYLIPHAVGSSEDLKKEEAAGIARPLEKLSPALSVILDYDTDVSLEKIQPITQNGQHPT
Chain of D3R (P35462 whole entry): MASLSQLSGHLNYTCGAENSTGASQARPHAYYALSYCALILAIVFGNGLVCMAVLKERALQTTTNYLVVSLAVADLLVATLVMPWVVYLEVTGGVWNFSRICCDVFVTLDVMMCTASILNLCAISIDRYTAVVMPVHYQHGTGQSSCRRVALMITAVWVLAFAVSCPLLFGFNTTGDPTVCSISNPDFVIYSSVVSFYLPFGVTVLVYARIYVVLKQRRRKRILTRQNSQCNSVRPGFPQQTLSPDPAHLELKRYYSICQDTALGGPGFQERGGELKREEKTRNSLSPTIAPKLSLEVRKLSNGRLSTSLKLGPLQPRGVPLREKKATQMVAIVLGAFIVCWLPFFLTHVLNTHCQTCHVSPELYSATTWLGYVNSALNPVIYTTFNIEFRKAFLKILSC
Chain of D5R (P21918 whole entry): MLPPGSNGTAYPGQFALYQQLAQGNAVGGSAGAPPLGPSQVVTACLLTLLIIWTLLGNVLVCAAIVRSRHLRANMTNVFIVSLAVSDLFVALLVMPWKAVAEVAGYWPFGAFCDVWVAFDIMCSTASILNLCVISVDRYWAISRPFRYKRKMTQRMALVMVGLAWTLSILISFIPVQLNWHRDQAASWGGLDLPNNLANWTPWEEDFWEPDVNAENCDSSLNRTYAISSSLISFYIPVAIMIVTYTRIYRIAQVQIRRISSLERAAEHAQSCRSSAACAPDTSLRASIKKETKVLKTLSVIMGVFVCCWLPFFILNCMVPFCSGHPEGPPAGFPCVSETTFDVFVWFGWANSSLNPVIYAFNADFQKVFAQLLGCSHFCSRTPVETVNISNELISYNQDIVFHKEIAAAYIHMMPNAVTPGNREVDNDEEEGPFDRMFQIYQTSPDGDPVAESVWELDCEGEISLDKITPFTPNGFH

COCC[N+]1=C(C=CC=C2N(CCCCCC(=O)NCCCOCCOCCOCCCNC(=O)CCC(=O)Nc3ccc(CCN4CN(c5ccccc5)C5(CCN(CCCC(=O)c6ccc(F)cc6)CC5)C4=O)cc3)c3ccc(S(=O)(=O)[O-])cc3C2(C)CCCS(=O)(=O)O)C(C)(CCCS(=O)(=O)O)c2cc(S(=O)(=O)O)ccc21 (centres unmarked) [compound 16]
pKi ([1]; displacement of […] [3H]N-methylspiperone, room temperature, […] min, N = […]): 6.67 ± 0.07

CN(C)c1ccc2c(-c3ccc(C(=O)NCCCOCCOCCOCCCNC(=O)CCC(=O)Nc4ccc(CCN5CN(c6ccccc6)C6(CCN(CCCC(=O)c7ccc(F)cc7)CC6)C5=O)cc4)cc3C(=O)[O-])c3ccc(=[N+](C)C)cc-3oc2c1 [compound 17, 2-(6-(Dimethylamino)-3-(dimethyliminio)-3H-xanthen-9-yl)-5-((18-((4-(2-(8-(4-(4-fluorophenyl)-4-oxobutyl)-4-oxo-1-phenyl-1,3,8-triazaspiro[4.5]decan-3-yl)ethyl)phenyl)amino)-15,18-dioxo-4,7,10-trioxa-14-azaoctadecyl)carbamoyl)benzoate dihydrotrifluoroacetate]
Ki [1]: 5.62 nM | Ki [2]: 29.5 nM | Ki [3]: 5.13 nM | Ki [4]: 331 nM | Ki [5]: > 3160 nM

CN(C)c1ccc2c(-c3ccc(C(=O)NCCCC(=O)Nc4ccc(CCN5CN(c6ccccc6)C6(CCN(CCCC(=O)c7ccc(F)cc7)CC6)C5=O)cc4)cc3C(=O)[O-])c3ccc(=[N+](C)C)cc-3oc2c1 [compound 20, 2-(6-(Dimethylamino)-3-(dimethyliminio)-3H-xanthen-9-yl)-5-((4-((4-(2-(8-(4-(4-fluorophenyl)-4-oxobutyl)-4-oxo-1-phenyl-1,3,8-triazaspiro[4.5]decan-3-yl)ethyl)phenyl)amino)-4-oxobutyl)carbamoyl)benzoate dihydrotrifluoracetate]
Ki [1]: 5.75 nM | Ki [2]: 16.6 nM | Kb [6]: 0.0295 nM | Ki [3]: 2.63 nM | Kb [7]: 1.66 nM | Kd [8]: 7.59 nM | Ki [4]: 67.6 nM | Ki [5]: 331 nM
